Measured values taken from US20110015208A1, “PHARMACEUTICAL COMPOSITIONS CONTAINING DOPAMINE RECEPTOR LIGANDS AND METHODS OF TREATMENT USING DOPAMINE RECEPTOR LIGANDS” (priority 2007, published 2011).
Where a name gives a salt, the structure may show the parent alone.

Tested on: chronic mild stress (CMS) model of depression
Assay: Chronic mild stress (CMS) model of depression, sucrose consumption (Example 2)
Type: in vivo, rat
Source text: This study evaluated the antidepressant effect of cariprazine hydrochloride in the chronic mild stress (CMS) model of depression. A comparison to the efficacy of the tricyciclic antidepressant compound imipramine was also made.
Male Wistar rats were adapted to laboratory and housing conditions for 3 weeks, followed by adoption to consumption of 1% sucrose solution for an additional 5 weeks before being separated into control and to-be-stressed groups.
Chronic stress was applied to the allocated group for seven weeks. The following stressors were used: food and/or water deprivation, cage tilting (45 degrees backwards), intermittent illumination, paired housing, soiled cage (250 mL of tap water in sawdust bedding), stroboscopic illumination (150 flashed per minute), no stress. All stressors were 10-14 hours in duration and were applied individually and continuously, once or twice weekly, during the day and at night.
Consumption of sucrose solution was measured in 1-hour tests conducted on all animals (i.e., controls and stressed) once weekly throughout the entire experiment. The tests were preceded by 14 hours of food and water deprivation. On the basis of their sucrose intakes following the initial 2 weeks of stress, both stressed and control animals received once-daily chronic (5 weeks) IP injections of vehicle (1% methyl cellulose, 1 mL/kg), cariprazine hydrochloride (0.0625, 0.25 or 1.0 mg/kg), or imipramine (10 mg/kg) as reference treatment. […] These animals were considered weak responders/non-responders and were eliminated from the analysis.

[1] = cariprazine hydrochloride 1 mg/kg IP once daily
[2] = cariprazine hydrochloride 0.065 and 0.25 mg/kg IP once daily, 5 weeks

SMILES: CN(C)C(=O)N[C@H]1CC[C@H](CCN2CCN(c3cccc(Cl)c3Cl)CC2)CC1 [Cariprazine hydrochloride, trans-4-{2-[4-(2,3-dichlorophenyl)-piperazin-1-yl]-ethyl}-N,N-dimethylcarbamoyl-cyclohexylamine hydrochloride]
- onset of action: increases in sucrose drinking evident at (cariprazine hydrochloride 0.065 mg/kg IP once daily, stressed animals): 1 Week
- sedation (cariprazine hydrochloride 1 mg/kg IP): strongly sedative dose
- sucrose consumption in control animals [1]: significantly decreased
- sucrose intake in stressed animals [1]: did not change
- activity in the CMS model (cariprazine hydrochloride 1 mg/kg IP once daily (highest dose)): inactive
- sucrose drinking in controls (non-stressed) [2]: without any significant effect
- sucrose drinking in stressed animals [2]: dose-dependently increased sucrose drinking
- magnitude of effect on sucrose drinking relative to imipramine (most active dose 0.065 mg/kg IP vs imipramine 10 mg/kg IP): greater than that of imipramine
